Molecules are shown by their SMILES.

For one assay, the target named is T1, Human complement C1s enzyme (Homo sapiens, UniProt P09871).
T1 construct: purified from human serum, Complement Technology, Inc; purchased Complement Technology, Inc; host or cells: human serum (plasma-derived natural protein)
T1 sequence (P09871 438-688 limits assumed): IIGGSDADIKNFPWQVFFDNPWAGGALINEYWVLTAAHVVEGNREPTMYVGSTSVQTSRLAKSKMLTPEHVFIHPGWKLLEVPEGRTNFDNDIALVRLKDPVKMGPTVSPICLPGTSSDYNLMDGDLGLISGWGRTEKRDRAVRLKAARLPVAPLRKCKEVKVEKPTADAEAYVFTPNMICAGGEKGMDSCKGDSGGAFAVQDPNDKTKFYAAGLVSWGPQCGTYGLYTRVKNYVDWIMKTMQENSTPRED
T1 sequence (P09871 16-437 partner limits assumed): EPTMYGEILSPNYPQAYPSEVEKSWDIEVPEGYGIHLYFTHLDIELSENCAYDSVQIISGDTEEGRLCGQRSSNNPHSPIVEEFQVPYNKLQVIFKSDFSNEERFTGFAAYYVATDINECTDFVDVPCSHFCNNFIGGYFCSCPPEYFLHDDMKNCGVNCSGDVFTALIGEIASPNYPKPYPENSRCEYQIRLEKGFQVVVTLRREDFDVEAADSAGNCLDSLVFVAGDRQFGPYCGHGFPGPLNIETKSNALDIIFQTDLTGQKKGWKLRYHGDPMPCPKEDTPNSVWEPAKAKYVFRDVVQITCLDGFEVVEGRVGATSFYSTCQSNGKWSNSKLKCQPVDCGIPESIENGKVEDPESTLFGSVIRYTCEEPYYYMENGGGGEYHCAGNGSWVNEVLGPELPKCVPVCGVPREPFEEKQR
Nature of the assay: Human C1s Enzyme Assay. The settings on record: Table 1; C1s purified from human serum, 1.16 nM; substrate Z-L-Lys-SBzl; read-out: C1s Protease Activity. Format: biochemical. Summed up: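 Serum-purified human C1s (1.16 nM) preincubated 5 min at RT with compound in 50 mM Tris, 1 M NaCl, pH 7.5. Z-L-Lys-SBzl and DTNB (100 μM each) then added; A405 followed every 30 s for 30 min. IC50 from nonlinear regression of reaction rates versus compound concentration.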
As for `C=C1C[C@@H](C(=O)NCc2cc(C(=N)N)cs2)N(C(=O)CNC(=O)c2ccc(Oc3ccccc3)cc2)C1` [Compound 6, (2S)—N-[(4-Carbamimidoylthiophen-2-yl)methyl]-4-methylidene-1-{2-[(4-phenoxyphenyl)formamido]acetyl}pyrrolidine-2-carboxamide], the IC50 was under 100 nM.

As for `N=C(N)c1csc(CNC(=O)[C@@H]2CSCN2C(=O)CNC(=O)c2ccc(Oc3ccccc3)cc2)c1` [Compound 4, (4R)—N-[(4-Carbamimidoylthiophen-2-yl)methyl]-3-{2-[(4-phenoxyphenyl)formamido]acetyl}-1,3-thiazolidine-4-carboxamide], the IC50 is under 100 nM.

Consider `C[C@H]1C[C@@H](C(=O)NCc2cc(C(=N)N)cs2)N(C(=O)CNC(=O)c2ccc(Oc3ccccc3)cc2)C1` [Compound 30, (2S,4S)—N-[(4-carbamimidoylthiophen-2-yl)methyl]-4-methyl-1-{2-[(4-phenoxyphenyl)formamido]acetyl}pyrrolidine-2-carboxamide], for which the IC50 was under 100 nM.

The same assay, now with this note: Table 2; C1s purified from human serum, 1.16 nM; substrate Z-L-Lys-SBzl; read-out: C1s Protease Activity.
Take `N=C(N)NOCCNC(=O)[C@@H]1CC2(CN1C(=O)CNC(=O)c1ccc(Oc3ccccc3)cc1)OCCO2` [Compound 65, (S)-N-(2-(guanidinooxy)ethyl)-7-((4-phenoxybenzoyl)glycyl)-1,4-dioxa-7-azaspiro[4.4]nonane-8-carboxamide]: the IC50 was over 1000 nM.

On to `CCCCCCCC(=O)NCC(=O)N1CCC[C@H]1C(=O)NCc1cc(C(=N)N)cs1` [Compound 84, (S)-N-((4-carbamimidoylthiophen-2-yl)methyl)-1-(octanoylglycyl)pyrrolidine-2-carboxamide], for which the IC50 is under 100 nM.

For the molecule `Cc1cc(C(=O)NCC(=O)N2CC3(C[C@H]2C(=O)NCc2cc4c(N)nccc4s2)OCCO3)ccc1Oc1ccccc1` [Compound 64, (S)-N-((4-aminothieno[3,2-c]pyridin-2-yl)methyl)-7-((3-methyl-4-phenoxybenzoyl)glycyl)-1,4-dioxa-7-azaspiro[4.4]nonane-8-carboxamide], the IC50 is 100 to 1000 nM.

As to `N=C(N)c1csc(CNC(=O)[C@@H]2CCCN2C(=O)CCCc2ccc(Oc3ccccc3)cc2)c1` [Compound 53, (S)-N-((4-carbamimidoylthiophen-2-yl)methyl)-1-(4-(4-phenoxyphenyl)butanoyl)pyrrolidine-2-carboxamide], the IC50 is under 100 nM.

For `N=C(N)c1csc(CNC(=O)[C@@H]2CCCN2C(=O)CNC(=O)CCCCc2ccccc2)c1` [Compound 80, (S)-N-((4-carbamimidoylthiophen-2-yl)methyl)-1-((5-phenylpentanoyl)glycyl)pyrrolidine-2-carboxamide], the IC50 was under 100 nM.

With `CCCc1cc(C(=O)NCC(=O)N2CCC[C@H]2C(=O)NCc2cc(C(=N)N)cs2)ccc1Oc1ccccc1` [Compound 41, (S)-N-((4-carbamimidoylthiophen-2-yl)methyl)-1-((4-phenoxy-3-propylbenzoyl)glycyl)pyrrolidine-2-carboxamide], the IC50 is under 100 nM.

Turning to `C=C(CCC(=O)N1CCC[C@H]1C(=O)NCc1cc(C(=N)N)cs1)c1ccc(Oc2ccccc2)cc1` [Compound 40, (S)-N-((4-carbamimidoylthiophen-2-yl)methyl)-1-(4-(4-phenoxyphenyl)pent-4-enoyl)pyrrolidine-2-carboxamide], the IC50 was in the range of 100 to 1000 nM.

Regarding `CN(C)CCCCC(=O)NCC(=O)N1CCC[C@H]1C(=O)NCc1cc(C(=N)N)cs1` [Compound 70, (S)-N-((4-carbamimidoylthiophen-2-yl)methyl)-1-((5-(dimethylamino)pentanoyl)glycyl)pyrrolidine-2-carboxamide], the IC50 is over 1000 nM.

(Values after US12479856B2, “Pharmaceutical compounds for the treatment of complement mediated disorders” (Achillion Pharmaceuticals, Inc., priority 2019, dated 2025).)
